Values joined by “and” are separate entries in the source; they are usually repeats but may differ in a detail not shown here. Identical values can stand only once. Counter-ions that a name gives are not always drawn.
Assays:
[1] = Side effects after subcutaneous, sublingual and oral apomorphine HCl in dog (Example 3)
[2] = mouse, cited from earlier work
[3] = Take-home intercourse satisfaction, VAS questionnaire question 3 (Example 5, Phase III); assay type: in vivo, human; conditions: for Satisfaction Percent Change from Baseline, LSMEAN / Satisfaction Percent Change from Baseline, MEAN: MALE
Text: During the five-week, home-use phase, subjects were to attempt coitus at least once each week after taking a single APO tablet. After each attempt, the subject and their partner completed a Sexual Function questionnaire (See FIGS. 15 and 16) which was later evaluated and used for final statistical analysis.
For the third phase, subjects had recorded at baseline, their satisfaction,erection, number of attempts, and successful intercourse on a VAS scale (see Tables Xa-Xc, above). Evaluateable subjects first recorded a success rate, then completed VAS for erection results and satisfaction with intercourse following take-home treatment. The success rates, as shown in Tables XVa-XVb, below, were calculated for milligrams of APO as well as for micrograms per kilogram of the patient's body weight doses (males). There were four criteria for recording a success in the take-home phase. […] Several evaluations of the data were made including the male and female responses to treatments via questionnaires (see FIGS. 15 and 16).
Tables XVIIa--XVIId, below, show the statistical results of phase III with respect to Rigiscan™ results (a and b) and intercourse satisfaction (c and d) based on question 1 and question 3, respectively, from the completed questionnaires (see FIGS. 15 and 16). […] The maximum improvement from baseline were 56% in males and 59% in females. The mean improvement were 29% in males and 34% in females. […] The mean improvements were 34% in females and 45% in males.

With `CN1CCc2cccc3c2[C@H]1Cc1ccc(O)c(O)c1-3` [apomorphine HCl] the “Average Severity” value ([1]; oral 0.2 mg/kg) was 0.00%, the “number of animals having nausea/vomiting” value ([1]; oral 0.2 mg/kg, 8 min, 4 animals per group) was 0 and the “number of animals having nausea/vomiting” value ([1]; oral 0.2 mg/kg, 15 min) was 0. For the same compound, the “number of animals having nausea/vomiting” value ([1]; oral 0.2 mg/kg, 30 min) was 0, the “Average Severity” value ([1]; subcutaneous 0.04 mg/kg) was 150.00% and the “number of animals having nausea/vomiting” value ([1]; subcutaneous 0.04 mg/kg, 8 min, 4 animals per group) was 4. For the same compound, the “number of animals having nausea/vomiting” value ([1]; subcutaneous 0.04 mg/kg, 15 min) was 2, the “number of animals having nausea/vomiting” value ([1]; subcutaneous 0.04 mg/kg, 30 min) was 0 and the “Average Severity” value ([1]; sublingual 0.2 mg/kg) was 50.00%. The “number of animals having nausea/vomiting” value ([1]; sublingual 0.2 mg/kg, 8 min, 4 animals per group) was 0, the “number of animals having nausea/vomiting” value ([1]; sublingual 0.2 mg/kg, 15 min) was 1 and the “number of animals having nausea/vomiting” value ([1]; sublingual 0.2 mg/kg, 30 min) was 1. For the same compound, the “lethality at or above about 13 mg/kg” value ([2]; single bolus subcutaneous) was “reported lethal”, the LD50 [2] was over 50 mg/kg and the “Satisfaction (Maximum) Change from Baseline, LSMEAN” value ([3]; FEMALE, 4 mg, all sites) was 41.86. For the same compound, the “Satisfaction (Maximum) Change from Baseline, LSMEAN” value ([3]; FEMALE, 6 mg, all sites) was 40.60, the “Satisfaction (Maximum) Change from Baseline, LSMEAN” value ([3]; FEMALE, 8 mg, all sites) was 62.33 and the “Satisfaction (Maximum) Change from Baseline, MEAN” value ([3]; FEMALE, all doses, site #1, #2, #3, #4, listed as APO) was 57.00 and 37.75 and 33.29. The “Satisfaction Percent Change from Baseline, LSMEAN” value ([3]; 4 mg, all sites) was 49.14%, the “Satisfaction Percent Change from Baseline, LSMEAN” value ([3]; 6 mg, all sites) was 51.47% and the “Satisfaction Percent Change from Baseline, MEAN” value ([3]; 6 mg, all sites, site #1, #2, #3, #4, listed as APO) was 51.47% and 40.60% and 59.50% and 54.50% and 58.00%. The “Satisfaction Percent Change from Baseline, LSMEAN” value ([3]; 8 mg, all sites) was 56.57%, the “Satisfaction Percent Change from Baseline, MEAN” value ([3]; all doses, b893 site #1, b897 #2, b901 #3, b905 #4, listed as APO) was 58.00% and 48.50% and 49.56% and 50.00% and the “VAS satisfaction, mean improvement” value ([3]; females) was 34%. For the same compound, the “VAS satisfaction, maximum improvement from baseline” value ([3]; females, 8 mg) was 62%, the “VAS satisfaction, mean improvement” value ([3]; males) was 45% and the “VAS satisfaction, maximum improvement from baseline” value ([3]; males, 8 mg) was 57%.
